Measured values taken from paper PMC10826971, “Evaluating protein cross-linking as a therapeutic strategy to stabilize SOD1 variants in a mouse model of familial ALS” (PLOS Biology, 2024).
Where two headings read alike, the source gives them in different places.

Legend:
[1] = MTT cell viability/cytotoxicity assay; format: cell-based; settings: human, Hep G2 cells
Experimental: The Hep G2 human hepatocarcinoma cell line (American Type Culture Collection, ATCC, Manassas, Virginia, USA) was cultured using EMEM (Eagle’s minimal essential medium, ATCC) supplemented with 10% FBS (fetal bovine serum, ATCC) and 1% penicillin streptomycin as previously described (10,000 units/mL penicillin and 10,000 μg/mL streptomycin, Fisher scientific, Hampton, New Hampshire, USA). The cells were grown and subcultured around 72 h at 37°C, 5% CO2 under controlled humidity. The cells growth and morphology were inspected using an inverted Carl Zeiss microscope (Carl Zeiss Microscopy LLC, White Plains, New York, USA).
Using manufacturer’s instructions, Hep G2 cells were cultured for 24 h with a density of 2 × 10^5 cells/mL in a 96-well culture plate at 37°C, 5% CO2 under controlled humidity. […] Cell cytotoxicity was performed via the MTT (3-(4,5-dimethylthiazol-2-yl)-2,5-diphenyltetrazolium bromide) assay at 570 nm absorbance using BioTek synergy H1 (Vermont, USA) plate reader according to previously published paper. The MTT stock was made at 5 mg/mL using 0.9% sodium chloride solution which was purchased from Sigma Aldrich (St. Louis, Missouri, USA). Twenty-four hours after dosing the plate, the cultured medium was aspirated and replaced with the equal volume of MTT solution (10× dilution using EMEM complete media). The plate was incubated for 4 h (37°C, 5% CO2). The MTT solution was replaced by the equal amount of acidified isopropanol (0.3% hydrochloric acid (v/v)) and then formed formazan was dissolved by shaking the plate gently for 30 min. The absorbance was measured at 570 nm for both the samples and acidified isopropanol for background calculation. Chlorpromazine and cells with 0.1% DMSO were used as positive control and vehicle, respectively. The cell viability of each concentration was measured by normalizing against mean value of cells with 0.1% DMSO (vehicle).

SOD1^G93A = SOD1^G93A (Homo sapiens, UniProt P00441, G94A); test: Differential scanning fluorimetry (DSF), thermal stability; format: binding; set-up: made in house; host or cells: EGy118ΔSOD1 yeast, YEp351 expression vector; settings: 10-fold molar excess S-XL6, 4 h 37°C; untreated 70.6°C
Experimental: (§1) To understand how cross-linking effects SOD1 stability, we quantified changes in unfolding temperature (ΔTu, hereafter thermal stability).
(§2) The effect of cross-link formation on the thermal stability of SOD1 was determined by differential scanning fluorimetry as previously described. […] After incubation, SYPRO Orange (Invitrogen Corporation, Carlsbad, California, USA), an environmentally sensitive fluorescent dye which is quenched in an aqueous environment but becomes unquenched once it binds hydrophobic residues, was added to the reaction mixture to a final concentration of 200×. The samples were then transferred to a fast optical 96-well reaction plate (Applied Biosystem, Life Technologies Corporation, Carlsbad, California, USA) and loaded on to the real-time PCR machine (Applied Biosystem, Life Technologies Corporation, Carlsbad, California, USA) after plate was spun down to eliminate bubbles. The Melt curve template in StepOne Plus software was used to set up a method. […] The final concentration of DMSO in the reaction mixture was checked as it contributes to the denaturation of proteins. […] The background data was subtracted from the average relative fluorescence and average derivate for each temperature point, and the data were normalized before Tus were quantified by averaging the negative first derivative of relative fluorescence of all 3 runs and identifying the local minima.

wild-type SOD1 = wild-type SOD1 (Homo sapiens, UniProt P00441); test: as above; format: binding; set-up: made in house; host or cells: EGy118ΔSOD1 yeast, YEp351 expression vector; settings: 10-fold molar excess S-XL6, 4 h 37°C; untreated 75.9°C
Experimental: as §1, §2

[2] = format: in vitro ADME; settings: human; for plasma protein binding assay readout (Fig 6C): 50 uM
Excerpt: Fig 6 Cross-linking at sub-toxic concentrations within cells. […] Results are shown as percentage of viable cells compared to a vehicle control. Note: cell viability <70% (dotted line) is generally considered as the threshold for cytotoxicity, and viabilities >100% indicate a trophic effect. Controls included EMEM with 0.1% DMSO (dimethyl sulfoxide, negative control) and 500 μm of chlorpromazine (positive control). […] The data underlying this figure can be found in S1 Data. LC-MS/MS, liquid chromatography-tandem mass spectrometry; MS, mass spectrometry; SOD1, superoxide dismutase 1.

Chain of SOD1^G93A (P00441 2-154 G94A limits assumed): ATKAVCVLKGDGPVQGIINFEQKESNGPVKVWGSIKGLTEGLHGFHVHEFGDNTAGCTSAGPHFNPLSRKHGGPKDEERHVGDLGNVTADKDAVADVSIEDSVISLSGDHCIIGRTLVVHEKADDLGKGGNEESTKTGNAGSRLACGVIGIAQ
Chain of wild-type SOD1 (P00441 2-154 limits assumed): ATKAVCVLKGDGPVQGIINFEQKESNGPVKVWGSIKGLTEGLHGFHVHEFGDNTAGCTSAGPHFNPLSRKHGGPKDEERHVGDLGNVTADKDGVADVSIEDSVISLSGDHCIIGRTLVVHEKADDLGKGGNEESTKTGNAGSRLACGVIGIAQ

For `[O-][S+]1CCCCS1` (centres unmarked) [S-XL6, 1,2-dithiane-1-oxide], the viability at 24 h, 10 µM ([1]; 10 µM, read-out: viable cells compared to vehicle control (MTT)) was 125%, the viability at 24 h, 100 µM ([1]; 100 µM, read-out: viable cells compared to vehicle control (MTT)) was 102% and the viability at 24 h, 150 µM ([1]; 150 µM, read-out: viable cells compared to vehicle control (MTT)) was 90%. It also gave a viability at 24 h, 250 µM ([1]; 250 µM, read-out: viable cells compared to vehicle control (MTT)) of 79%, a viability at 24 h, 400 µM ([1]; 400 µM, read-out: viable cells compared to vehicle control (MTT)) of 72% and a viability at 24 h, 600 µM ([1]; 600 µM, read-out: viable cells compared to vehicle control (MTT)) of 15%. The viability at 24 h, 800 µM ([1]; 800 µM, read-out: viable cells compared to vehicle control (MTT)) was 14%, the viability at 24 h, 1000 µM ([1]; 1000 µM, read-out: viable cells compared to vehicle control (MTT)) was 14% and the CC50 at 24 h ([1]; MTT, read-out: Cytotoxicity LC50) was about 446 µM. For the same compound, the “unfolding temperature (Tu) of S-XL6 cross-linked protein” value (SOD1^G93A) was 85.0 °C, the “unfolding temperature (Tu) of S-XL6 cross-linked protein” value (wild-type SOD1) was 90.2 °C and the “plasma protein binding assay readout (Fig 6C)” value [2] was 79%. The plasma protein binding ([2]; plasma) was “no binding” and the “plasma protein binding assay readout (Fig 6C)” value ([2]; plasma) was 144%.
